Assays:
blackgrass [1] = test: Test A preemergence; format: in vivo, Alopecurus myosuroides
Summary of the method: (§1)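 Seeds in loam–sand blend received a directed preemergence soil spray of compound in non-phytotoxic solvent with surfactant; postemergence plants (2–10 cm, one- to two-leaf stage) were sprayed with the same formulation. After 10 days in greenhouse, injury was rated visually versus untreated controls, 0 (no effect) to 100 (complete control).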

corn [2] = test: Test A preemergence; format: in vivo, Zea mays
Summary of the method: as §1

foxtail, giant [3] = test: Test A preemergence; format: in vivo, Setaria faberi
Summary of the method: as §1

goosegrass [4] = test: Test A preemergence; format: in vivo, Eleusine indica
Summary of the method: as §1

kochia [5] = test: Test A preemergence; format: in vivo, Bassia scoparia
Summary of the method: as §1

oat, wild [6] = test: Test A preemergence; format: in vivo, Avena fatua
Summary of the method: as §1

pigweed, palmer [7] = test: Test A preemergence; format: in vivo, Amaranthus palmeri
Summary of the method: as §1

ragweed [8] = test: Test A preemergence; format: in vivo, Ambrosia artemisiifolia
Summary of the method: as §1

ryegrass, Italian [9] = test: Test A preemergence; format: in vivo, Lolium multiflorum
Summary of the method: as §1

soybean [10] = test: Test A preemergence; format: in vivo, Glycine max
Summary of the method: as §1

wheat [11] = test: Test A preemergence; format: in vivo, Triticum aestivum
Summary of the method: as §1

blackgrass [12] = test: Test A postemergence; format: in vivo, Alopecurus myosuroides; settings: postemergence, 10 days; for Blackgrass plant response rating: 125 g ai/ha, 0 to 100 scale, 0 no effect, 100 complete control; for Plant response rating, Blackgrass: 500 g ai/ha, visual injury, 0 to 100 scale (0 no effect, 100 complete control)
Summary of the method: as §1

corn [13] = test: Test A postemergence; format: in vivo, Zea mays; settings: postemergence, 10 days; for Corn plant response rating: 125 g ai/ha, 0 to 100 scale, 0 no effect, 100 complete control; for Plant response rating, Corn: 500 g ai/ha, visual injury, 0 to 100 scale (0 no effect, 100 complete control)
Summary of the method: as §1

foxtail, giant [14] = test: Test A postemergence; format: in vivo, Setaria faberi; settings: postemergence, 10 days; for Foxtail, Giant plant response rating: 125 g ai/ha, 0 to 100 scale, 0 no effect, 100 complete control; for Plant response rating, Foxtail, Giant: 500 g ai/ha, visual injury, 0 to 100 scale (0 no effect, 100 complete control)
Summary of the method: as §1

goosegrass [15] = test: Test A postemergence; format: in vivo, Eleusine indica; settings: postemergence, 10 days; for Goosegrass plant response rating: 125 g ai/ha, 0 to 100 scale, 0 no effect, 100 complete control; for Plant response rating, Goosegrass: 500 g ai/ha, visual injury, 0 to 100 scale (0 no effect, 100 complete control)
Summary of the method: as §1

kochia [16] = test: Test A postemergence; format: in vivo, Bassia scoparia; settings: postemergence, 10 days; for Kochia plant response rating: 125 g ai/ha, 0 to 100 scale, 0 no effect, 100 complete control; for Plant response rating, Kochia: 500 g ai/ha, visual injury, 0 to 100 scale (0 no effect, 100 complete control)
Summary of the method: as §1

oat, wild [17] = test: Test A postemergence; format: in vivo, Avena fatua; settings: postemergence, 10 days; for Oat, Wild plant response rating: 125 g ai/ha, 0 to 100 scale, 0 no effect, 100 complete control; for Plant response rating, Oat, Wild: 500 g ai/ha, visual injury, 0 to 100 scale (0 no effect, 100 complete control)
Summary of the method: as §1

pigweed, palmer [18] = test: Test A postemergence; format: in vivo, Amaranthus palmeri; settings: postemergence, 10 days; for Pigweed, Palmer plant response rating: 125 g ai/ha, 0 to 100 scale, 0 no effect, 100 complete control; for Plant response rating, Pigweed, Palmer: 500 g ai/ha, visual injury, 0 to 100 scale (0 no effect, 100 complete control)
Summary of the method: as §1

ragweed [19] = test: Test A postemergence; format: in vivo, Ambrosia artemisiifolia; settings: postemergence, 10 days; for Ragweed plant response rating: 125 g ai/ha, 0 to 100 scale, 0 no effect, 100 complete control; for Plant response rating, Ragweed: 500 g ai/ha, visual injury, 0 to 100 scale (0 no effect, 100 complete control)
Summary of the method: as §1

ryegrass, Italian [20] = test: Test A postemergence; format: in vivo, Lolium multiflorum; settings: postemergence, 10 days; for Ryegrass, Italian plant response rating: 125 g ai/ha, 0 to 100 scale, 0 no effect, 100 complete control; for Plant response rating, Ryegrass, Italian: 500 g ai/ha, visual injury, 0 to 100 scale (0 no effect, 100 complete control)
Summary of the method: as §1

soybean [21] = test: Test A postemergence; format: in vivo, Glycine max; settings: postemergence, 10 days; for Soybean plant response rating: 125 g ai/ha, 0 to 100 scale, 0 no effect, 100 complete control; for Plant response rating, Soybean: 500 g ai/ha, visual injury, 0 to 100 scale (0 no effect, 100 complete control)
Summary of the method: as §1

wheat [22] = test: Test A postemergence; format: in vivo, Triticum aestivum; settings: postemergence, 10 days; for Wheat plant response rating: 125 g ai/ha, 0 to 100 scale, 0 no effect, 100 complete control; for Plant response rating, Wheat: 500 g ai/ha, visual injury, 0 to 100 scale (0 no effect, 100 complete control)
Summary of the method: as §1

horseweed = test: Test A postemergence; format: in vivo, Erigeron canadensis; settings: postemergence, 10 days; for Horseweed plant response rating: 125 g ai/ha, 0 to 100 scale, 0 no effect, 100 complete control; for Plant response rating, Horseweed: 500 g ai/ha, visual injury, 0 to 100 scale (0 no effect, 100 complete control)
Summary of the method: as §1

barnyardgrass = test: Test B flooded paddy test; format: in vivo, Echinochloa crus-galli; settings: 250 g ai/ha, Flood, 13 days, 0 to 100 scale (0 no effect, 100 complete control)
Summary of the method: (§2)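 Compound is introduced into paddy water covering soil by 3 cm, treating plants that have reached two leaves. Pots are kept flooded at that depth under greenhouse conditions. Assessment at 13 days gives a 0–100 visual control score.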

ducksalad = test: Test B flooded paddy test; format: in vivo, Heteranthera limosa; settings: 250 g ai/ha, Flood, 13 days, 0 to 100 scale (0 no effect, 100 complete control)
Summary of the method: as §2

rice = test: Test B flooded paddy test; format: in vivo, Oryza sativa; settings: 250 g ai/ha, Flood, 13 days, 0 to 100 scale (0 no effect, 100 complete control)
Summary of the method: as §2

sedge, umbrella = test: Test B flooded paddy test; format: in vivo, Cyperus difformis; settings: 250 g ai/ha, Flood, 13 days, 0 to 100 scale (0 no effect, 100 complete control)
Summary of the method: as §2

[23] = 125 g ai/ha, visual injury after 10 days, 0 to 100 scale, 0 is no effect, 100 is complete control
[24] = 500 g ai/ha, 0 to 100 scale (0 no effect, 100 complete control), 10 days

## COc1ccc(-n2cnc(C(C)(C)C)n2)cc1C(=O)N1C[C@H](C)Oc2c(Cl)cccc21 [Compound 83]
Blackgrass [1]; [23]
  Plant response rating, Blackgrass: 40
Blackgrass [1]; [24]
  Plant response rating, Blackgrass: 50
Corn [2]; [23]
  Plant response rating, Corn: 0
Corn [2]; [24]
  Plant response rating, Corn: 20
foxtail, giant [3]; [23]
  Plant response rating, Foxtail, Giant: 100
foxtail, giant [3]; [24]
  Plant response rating, Foxtail, Giant: 100
Goosegrass [4]; [23]
  Plant response rating, Goosegrass: 100
Goosegrass [4]; [24]
  Plant response rating, Goosegrass: 100
Kochia [5]; [23]
  Plant response rating, Kochia: 90
Kochia [5]; [24]
  Plant response rating, Kochia: 100
oat, wild [6]; [23]
  Plant response rating, Oat, Wild: 90
oat, wild [6]; [24]
  Plant response rating, Oat, Wild: 90
pigweed, palmer [7]; [23]
  Plant response rating, Pigweed, Palmer: 100
pigweed, palmer [7]; [24]
  Plant response rating, Pigweed, Palmer: 100
Ragweed [8]; [23]
  Plant response rating, Ragweed: 50
Ragweed [8]; [24]
  Plant response rating, Ragweed: 90
ryegrass, Italian [9]; [23]
  Plant response rating, Ryegrass, Italian: 100
ryegrass, Italian [9]; [24]
  Plant response rating, Ryegrass, Italian: 100
Soybean [10]; [23]
  Plant response rating, Soybean: 50
Soybean [10]; [24]
  Plant response rating, Soybean: 100
Wheat [11]; [23]
  Plant response rating, Wheat: 10
Wheat [11]; [24]
  Plant response rating, Wheat: 90
Blackgrass [12]
  Blackgrass plant response rating: 10
  Plant response rating, Blackgrass: 60
Corn [13]
  Corn plant response rating: 30
  Plant response rating, Corn: 50
foxtail, giant [14]
  Foxtail, Giant plant response rating: 20
  Plant response rating, Foxtail, Giant: 90
Goosegrass [15]
  Goosegrass plant response rating: 70
  Plant response rating, Goosegrass: 100
Kochia [16]
  Kochia plant response rating: 100
  Plant response rating, Kochia: 100
oat, wild [17]
  Oat, Wild plant response rating: 20
  Plant response rating, Oat, Wild: 70
pigweed, palmer [18]
  Pigweed, Palmer plant response rating: 100
  Plant response rating, Pigweed, Palmer: 90
Ragweed [19]
  Ragweed plant response rating: 70
  Plant response rating, Ragweed: 100
ryegrass, Italian [20]
  Ryegrass, Italian plant response rating: 40
  Plant response rating, Ryegrass, Italian: 100
Soybean [21]
  Soybean plant response rating: 100
  Plant response rating, Soybean: 100
Wheat [22]
  Wheat plant response rating: 10
  Plant response rating, Wheat: 40
horseweed
  Horseweed plant response rating: 40
  Plant response rating, Horseweed: 40
barnyardgrass
  Plant response rating, Barnyardgrass: 40
ducksalad
  Plant response rating, Ducksalad: 30
rice
  Plant response rating, Rice: 0
sedge, umbrella
  Plant response rating, Sedge, Umbrella: 100

## C[C@H]1CN(C(=O)c2cccc(-n3cnc(Br)n3)c2)c2cccc(Cl)c2O1 [Compound 85]
Blackgrass [1]; [23]
  Plant response rating, Blackgrass: 0
Blackgrass [1]; [24]
  Plant response rating, Blackgrass: 30
Corn [2]; [23]
  Plant response rating, Corn: 0
Corn [2]; [24]
  Plant response rating, Corn: 0
foxtail, giant [3]; [23]
  Plant response rating, Foxtail, Giant: 30
foxtail, giant [3]; [24]
  Plant response rating, Foxtail, Giant: 90
Goosegrass [4]; [23]
  Plant response rating, Goosegrass: 80
Goosegrass [4]; [24]
  Plant response rating, Goosegrass: 100
Kochia [5]; [23]
  Plant response rating, Kochia: 20
Kochia [5]; [24]
  Plant response rating, Kochia: 80
oat, wild [6]; [23]
  Plant response rating, Oat, Wild: 0
oat, wild [6]; [24]
  Plant response rating, Oat, Wild: 10
pigweed, palmer [7]; [23]
  Plant response rating, Pigweed, Palmer: 70
pigweed, palmer [7]; [24]
  Plant response rating, Pigweed, Palmer: 60
Ragweed [8]; [23]
  Plant response rating, Ragweed: 0
Ragweed [8]; [24]
  Plant response rating, Ragweed: 0
ryegrass, Italian [9]; [23]
  Plant response rating, Ryegrass, Italian: 90
ryegrass, Italian [9]; [24]
  Plant response rating, Ryegrass, Italian: 90
Soybean [10]; [23]
  Plant response rating, Soybean: 0
Soybean [10]; [24]
  Plant response rating, Soybean: 0
Wheat [11]; [23]
  Plant response rating, Wheat: 0
Wheat [11]; [24]
  Plant response rating, Wheat: 0
Blackgrass [12]
  Blackgrass plant response rating: 30
  Plant response rating, Blackgrass: 50
Corn [13]
  Corn plant response rating: 10
  Plant response rating, Corn: 10
foxtail, giant [14]
  Foxtail, Giant plant response rating: 20
  Plant response rating, Foxtail, Giant: 40
Goosegrass [15]
  Goosegrass plant response rating: 0
  Plant response rating, Goosegrass: 30
Kochia [16]
  Kochia plant response rating: 60
  Plant response rating, Kochia: 90
oat, wild [17]
  Oat, Wild plant response rating: 20
  Plant response rating, Oat, Wild: 30
pigweed, palmer [18]
  Pigweed, Palmer plant response rating: 70
  Plant response rating, Pigweed, Palmer: 80
Ragweed [19]
  Ragweed plant response rating: 0
  Plant response rating, Ragweed: 20
ryegrass, Italian [20]
  Ryegrass, Italian plant response rating: 10
  Plant response rating, Ryegrass, Italian: 70
Soybean [21]
  Soybean plant response rating: 100
  Plant response rating, Soybean: 100
Wheat [22]
  Wheat plant response rating: 0
  Plant response rating, Wheat: 10
horseweed
  Horseweed plant response rating: 20
  Plant response rating, Horseweed: 50
barnyardgrass
  Plant response rating, Barnyardgrass: 0
ducksalad
  Plant response rating, Ducksalad: 0
rice
  Plant response rating, Rice: 0
sedge, umbrella
  Plant response rating, Sedge, Umbrella: 0

Source: US20260262643A1, “HERBICIDAL BENZOXAZINES” (FMC CORPORATION, priority 2022, published 2026)
